Reference: patent US11236053B2, “NADPH oxidase inhibitors and uses thereof” (Emory University, priority 2017, dated 2022)

How the values were obtained:
[1] = tested on: human aortic smooth muscle cells; test: Mammalian cell live/dead viability assay; format: cell-based; conditions: TGF-β stimulated, n=6
Procedure: To rule out a possible toxic effect of these compounds in cultured cells, cell viability was measured using a commercial mammalian cell live/dead assay. Stimulation with TGF-β alone had no effect on cell viability (99±0.61%, P=NS, n=4).

[2] = tested on: Nox4-dependent signaling; test: TGF-β-induced α-SMA upregulation in human aortic smooth muscle cells (Western blot); format: cell-based; conditions: HASMCs pretreated 30 min, TGF-β 24 h, Western blot normalized to β-tubulin
Procedure: Human aortic smooth muscle cells in culture were incubated with indicated concentrations of compound 23, 24, or 25 and stimulated with 2 ng/ml TGF-β for 24 h to induce a Nox4-dependent upregulation of smooth muscle alpha-actin (α-SMA). Protein expression was measured by Western blotting and normalized to β-tubulin. In the absence of inhibitor, α-SMA induction by TGF-β was maximal (100%).
Cells were pretreated with a candidate inhibitor 30 min before exposure to TGF-β and harvested after 24 h. Actin expression was measured by western blotting with a specific antibody.

[3] = Hydrogen peroxide scavenging assay (Amplex Red); format: biochemical; conditions: in vitro, concentrations up to 100 μM, 5 μM exogenous hydrogen peroxide
Procedure: (§1) ROS scavenging by sulfonylurea compound 23, 24, or 25 was assessed in vitro. Superoxide was generated with xanthine/xanthine oxidase and measured using the cytochrome C assay. In addition, 5 μM hydrogen peroxide was added exogenously and measured using the Amplex Red™ assay. ROS were measured in the presence of indicated concentrations of each compound or DMSO solvent. Bars represent means±SEM of 4 (superoxide) or 3 (hydrogen peroxide) independent experiments. Differences between DMSO and sulfonylurea compounds are not significant.
(§2) To assess ROS scavenging, the consumption of superoxide, generated by xanthine/xanthine oxidase, or of exogenous hydrogen peroxide, was measured by increasing concentrations of the compounds of interest.
Hydrogen peroxide was measured in vitro, using an Amplex Red™ assay kit (Invitrogen), according to the manufacturer's instructions. This assay measures the oxidation of Amplex Red™ (10-acetyl-3,7-dihydroxyphenoxazine) to fluorescent resorufin in the presence of horseradish peroxidase. Briefly, H2O2 ([…]) was added to various concentrations (1-100 μM) of the compounds under study in reaction buffer. After an incubation of 5 min, Amplex Red™ was added to measure remaining H2O2. Reactions were incubated for 30 min at room temperature, protected from light. Resorufin fluorescence was measured in a microplate reader (Biotek) using excitation at 530 nm and emission at 590 nm.

[4] = Superoxide scavenging assay (xanthine/xanthine oxidase, cytochrome C); format: biochemical; conditions: in vitro, concentrations up to 100 μM, superoxide from xanthine/xanthine oxidase
Procedure: as §1, §2
An assay was developed based on the measurement of superoxide-dependent changes in cytochrome C absorbance at 550 nm. Briefly, superoxide was generated in vitro in phosphate buffered saline solution, using hypoxanthine (100 μM)/xanthine oxidase (6×10^3 U/mL) in the presence of catalase (200 U/mL) to eliminate H2O2. Compounds under study were added at various concentrations (1-100 μM) and remaining superoxide was measured with cytochrome C (46 μM). Superoxide dismutase (575 U/mL) was used as a positive control in separate samples measured at the same time. Following a 1 min stabilization period, absorbance was measured at 550 nm in a microplate reader (Biotek), using a kinetic program (1 read/min) for 15 min. The linear slope representing the rate of superoxide production was used to calculate the percentage of superoxide scavenging.

[5] = tested on: Nox4 mRNA; test: Nox4 mRNA qPCR assay in TGF-β-stimulated cells; format: cell-based, human; conditions: preincubation, same range of concentrations as FIG. 11, TGF-β stimulated
[6] = tested on: hippocampal brain slices; conditions: hippocampal brain slices treated with Nox 4 inhibitors; cited from earlier work

| Compound | cell viability ([1]; 10 μM preincubation) | inhibition of Nox4-dependent signaling (α-SMA expression) [2] | effect on hydrogen peroxide (ROS scavenging) [3] | effect on superoxide (ROS scavenging) [4] | effect on Nox4 expression (Nox4 mRNA) [5] | cell viability ([1]; 100 μM preincubation) | cell death [6] |
| --- | --- | --- | --- | --- | --- | --- | --- |
| COc1ccc(S(=O)(=O)N2CCN(c3ccc(C(F)(F)F)cc3)C2=O)cc1 [Compound 25, 1-((4-Methoxyphenyl)sulfonyl)-3-(4-(trifluoromethyl)phenyl)-imidazolidin-2-one] | 97±2.50% | profoundly inhibiting | no effect | no effect | did not affect |  |  |
| COc1ccc(S(=O)(=O)N2CCCN(c3ccc(C(F)(F)F)cc3)C2=O)cc1 [Compound 23, 1-((4-Methoxyphenyl)sulfonyl)-3-(4-(trifluoromethyl)phenyl)-tetrahydropyrimidin-2(1H)-one] |  | profoundly inhibiting | no effect | no effect | did not affect | 92±3.09% |  |
| Cc1c2c(=O)n(-c3ccccc3Cl)[nH]c2cc(=O)n1Cc1ccccn1 [GKT136901] |  |  |  |  |  |  | significantly reduced |
| O=C1N(c2ccc(C(F)(F)F)cc2)CCCN1S(=O)(=O)c1ccc(F)cc1 [Compound 24, 1-((4-Fluorophenyl)sulfonyl)-3-(4-(trifluoromethyl)phenyl)-tetrahydropyrimidin-2(1H)-one] |  | profoundly inhibiting | no effect | no effect | did not affect | 100±0.97% |  |
